Measured values as given in patent publication US9828365B2, “Fused tetracyclic heterocyclic compounds and methods of use thereof for the treatment of viral diseases” (MERCK SHARP & DOHME CORP., priority 2013, dated 2017).
Read-outs that look alike come from different tables or passages of the source.

Experiments:
HCV replicon genotype 1A = assay: Cell-based HCV replicon assay, 1A; conditions: replicon cells, 3 days, replicon RNA by real-time PCR
Protocol: (§1) To measure cell-based anti-HCV activity of selected compounds of the present invention two complimentary assays were employed. In the first assay, replicon cells were seeded at 2000 cells/well in 384-well flat bottom tissue culture treated clear bottom plate (Corning 3707) in the presence of the test compound. Various concentrations of test compound, typically in 10 serial dilutions, were added to the assay mixture, with the starting concentration ranging from 333.3 nM to 1.667 nM. The final concentration of DMSO was 0.5%. Fetal bovine serum was 5%, in the assay media. Cells were harvested on day 3 by removing media and washing the cells with a suitable wash buffer. The cells were lysed with the addition of 1× Qiagen lysis buffer (Cat #1062731). The replicon RNA level was measured using real time PCR (TaqMan® EZ RT-PCR, Applied Biosystems 403028) with the following primers and probes: […]
(§2) Cyclophilin RNA was used as endogenous control and was amplified in the same reaction as NS5B (multiplex PCR). The real-time RT-PCR reactions were run on ABI PRISM 7900HT Sequence Detection System using the following program: 50° C. for 2 minutes, 60° C. for 30 minutes, 95° C. for 5 minutes, 40 cycles of 94° C. for 20 sec, 55° C. for 1 minute.
(§3) The amount of HCV replicon RNA per cell is quantified using a linear regression curve for a known nanogram (ng) amount of HCV replicon total RNA. This is established by plotting the Cycle Threshold values (Ct) from the Neo probe and primer set versus the log (ng) for each HCV replicon total RNA standard. The amount of HCV RNA for each replicon sample is calculated by taking the sample's Ct value, minus the line intercept, divided by the slope of the line. Similarly, the amount of Cyclophilin mRNA per cell is also quantified using a linear regression curve for a known nanogram (ng) amount of HCV replicon total RNA. Again, this is established by plotting the Cycle Threshold values (Ct) from the Cyclophilin probe and primer set versus the log (ng) for each HCV replicon total RNA standard.
(§4) In the alternate assay, 1000 cells were seeded per well in a 384-well collagen coated black plate from Greiner bio-one (Cat #781946) in 5% FBS. Inhibitors of this invention were added at 24 hours post-seeding, and the plates were incubated for 3 days. Cells were subsequently lysed with Qiagen lysis buffer (Cat #1062731) to extract the RNA. HCV replicon RNA level was measured by real-time PCR using the RNA-to-CT kit from Applied Biosystem (Cat #4392656) and genotype-specific primers and probes. The amplicon was located within NS5B. The sequence of the PCR primers were as follows: 5B.2F, ATGGACAGGCGCCCTGA (SEQ. ID NO. 7); 5B.2R, […] (SEQ. ID NO. 8); the probe sequence was FAM-labeled CACGCCATGCGCTGCGG (SEQ. ID NO. 9). To detect genotype 1A the primer 1A F, TGCGGAACCGGTGAGTACA (SEQ ID NO:10) and 1A R, […] (SEQ ID NO: 11) were used; the probe sequence was FAM-[…] (SEQ ID NO:12).
(§5) The real-time RT-PCR reactions were run on ABI PRISM 7900HT or Viia7 Sequence Detection System using the following program: 48° C. for 30 minutes, 95° C. for 10 minutes, 40 cycles of 95° C. for 15 sec, 60° C. for 1 minute. The 50% effective concentration (EC50) was the drug concentration necessary to achieve an increase in the cycle threshold (CT) of 1 over the projected baseline CT. The EC90 was the drug concentration necessary to achieve an increase in CT of 3.2 over the projected baseline CT.

HCV replicon 1A Y93H = assay: Cell-based HCV replicon assay, 1A Y93H
Protocol: as §1, §2, §3, §4, §5

HCV replicon 1B = assay: Cell-based HCV replicon assay, 1B; conditions: replicon cells, 3 days, replicon RNA by real-time PCR
Protocol: as §1, §2, §3, §4, §5

HCV replicon 2B = assay: Cell-based HCV replicon assay, 2B; conditions: replicon cells, 3 days, replicon RNA by real-time PCR
Protocol: as §1, §2, §3, §4, §5

HCV replicon 3A = assay: Cell-based HCV replicon assay, 3A; conditions: replicon cells, 3 days, replicon RNA by real-time PCR
Protocol: as §1, §2, §3, §4, §5

[1] = read-out: 1A Y93H IC50, replicon cells, 3 days, replicon RNA by real-time PCR
[2] = Hepatitis C virus, 72 h, read-out: 1A Y93H IC50 (nM), replicon cells, 3 days, replicon RNA by real-time PCR

Row | SMILES | IC50 (HCV replicon genotype 1A) [nM] | IC50 (HCV replicon 1A Y93H; [1]) [nM] | IC50 (HCV replicon 1A Y93H; [2]) [nM] | other results
1 | COC(=O)N[C@H](C(=O)N1CCC[C@H]1c1ncc(-c2ccc3c(c2)OC(c2ccccc2)C2=C3COc3cc(-c4cnc([C@@H]5CCCN5C(=O)[C@@H](NC(=O)OC)C(C)C)[nH]4)ccc32)[nH]1)C(C)C (single isomer, unassigned) [Compound 8] | 0.0337 | 20.4 | – | IC50 (HCV replicon 1B): 0.021 nM; IC50 (HCV replicon 2B): 6.65 nM; IC50 (HCV replicon 3A): 0.969 nM
2 | COC(=O)N[C@H](C(=O)N1CCC[C@H]1c1ncc(-c2ccc3c(c2)OC(c2ccccc2)C2=C3COc3cc(-c4cnc([C@@H]5CCCN5C(=O)[C@@H](NC(=O)OC)C(C)C)[nH]4)ccc32)[nH]1)C(C)C (single isomer, unassigned) [Compound 9] | 0.0099 | 3.94 | – | IC50 (HCV replicon 1B): 0.0073 nM; IC50 (HCV replicon 2B): 1.9 nM; IC50 (HCV replicon 3A): 0.172 nM
3 | COC(=O)N[C@H](C(=O)N1CCC[C@H]1c1ncc(-c2ccc3c(c2)OC(c2cccc(OC)c2)C2=C3COc3cc(-c4cnc([C@@H]5CCCN5C(=O)[C@@H](NC(=O)OC)C(C)C)[nH]4)ccc32)[nH]1)C(C)C (single isomer, unassigned) [Compound 10] | 0.0035 | – | 2.94 | IC50 (HCV replicon 2B; Hepatitis C virus, 72 h): 2.72 nM; IC50 (HCV replicon 3A): 0.233 nM
4 | COC(=O)N[C@H](C(=O)N1CCC[C@H]1c1ncc(-c2ccc3c(c2)OC(c2cccc(OC)c2)C2=C3COc3cc(-c4cnc([C@@H]5CCCN5C(=O)[C@@H](NC(=O)OC)C(C)C)[nH]4)ccc32)[nH]1)C(C)C (single isomer, unassigned) [Compound 11] | 0.01 | – | – | IC50 (HCV replicon 1B; Hepatitis C virus, 72 h): 0.006 nM
5 | COC(=O)N[C@H](C(=O)N1CCC[C@H]1c1ncc(-c2ccc3c(c2)OC(c2cccc(OC)c2)C2=C3COc3cc(-c4cnc([C@@H]5CCCN5C(=O)[C@@H](NC(=O)OC)C(C)C)[nH]4)ccc32)[nH]1)C(C)C (single isomer, unassigned) [Compound 12] | 0.0251 | 2.44 | – | IC50 (HCV replicon 3A): 1.82 nM
6 | COC(=O)N[C@H](C(=O)N1CCC[C@H]1c1ncc(-c2ccc3c(c2)OC(C)C2=C3COc3cc(-c4cnc([C@@H]5CCCN5C(=O)[C@@H](NC(=O)OC)C(C)C)[nH]4)ccc32)[nH]1)C(C)C (single isomer, unassigned) [Compound 13] | 0.0344 | 23.8 | – | IC50 (HCV replicon 2B): 12 nM; IC50 (HCV replicon 3A; Hepatitis C virus, 72 h): 1 nM
7 | COC(=O)N[C@H](C(=O)N1CCC[C@H]1c1ncc(-c2ccc3c(c2)OC(C)C2=C3COc3cc(-c4cnc([C@@H]5CCCN5C(=O)[C@@H](NC(=O)OC)C(C)C)[nH]4)ccc32)[nH]1)C(C)C (single isomer, unassigned) [Compound 14] | 0.0122 | 31.8 | – | IC50 (HCV replicon 2B): 24.5 nM
8 | COC(=O)N[C@H](C(=O)N1CCC[C@H]1c1ncc(-c2ccc3c(c2)OC(C)C2=C3COc3cc(-c4cnc([C@@H]5CCCN5C(=O)[C@@H](NC(=O)OC)C(C)C)[nH]4)ccc32)[nH]1)C(C)C (single isomer, unassigned) [Compound 15] | 0.0229 | 127 | – | IC50 (HCV replicon 2B): 15.3 nM
9 | COC(=O)N[C@H](C(=O)N1CCC[C@H]1c1ncc(-c2ccc3c(c2)OC(C2CC2)C2=C3COc3cc(-c4cnc([C@@H]5CCCN5C(=O)[C@@H](NC(=O)OC)C(C)C)[nH]4)ccc32)[nH]1)C(C)C (single isomer, unassigned) [Compound 16] | – | 6.31 | – | IC50 (HCV replicon genotype 1A; Hepatitis C virus, 72 h): 0.0118 nM; IC50 (HCV replicon 2B; Hepatitis C virus, 72 h): 0.621 nM; IC50 (HCV replicon 3A; Hepatitis C virus, 72 h): 3.74 nM
10 | COC(=O)N[C@H](C(=O)N1CCC[C@H]1c1ncc(-c2ccc3c(c2)OC(C2CC2)C2=C3COc3cc(-c4cnc([C@@H]5CCCN5C(=O)[C@@H](NC(=O)OC)C(C)C)[nH]4)ccc32)[nH]1)C(C)C (single isomer, unassigned) [Compound 17] | 0.0115 | 57.9 | – | –
11 | COC(=O)N[C@H](C(=O)N1CCC[C@H]1c1ncc(-c2ccc3c(c2)OC(C2CC2)C2=C3COc3cc(-c4cnc([C@@H]5CCCN5C(=O)[C@@H](NC(=O)OC)C(C)C)[nH]4)ccc32)[nH]1)C(C)C (single isomer, unassigned) [Compound 18] | 0.0081 | 14.3 | – | –
12 | COC(=O)N[C@H](C(=O)N1C[C@H](F)C[C@H]1c1ncc(-c2ccc3c(c2)OC(C2CC2)C2=C3COc3cc(-c4cnc([C@@H]5C[C@@H](F)CN5C(=O)[C@@H](NC(=O)OC)C(C)C)[nH]4)ccc32)[nH]1)C(C)C (single isomer, unassigned) [Compound 19] | 0.0192 | – | 2.31 | –
13 | COC(=O)N[C@H](C(=O)N1C[C@H](F)C[C@H]1c1ncc(-c2ccc3c(c2)OC(C2CC2)C2=C3COc3cc(-c4cnc([C@@H]5C[C@@H](F)CN5C(=O)[C@@H](NC(=O)OC)C(C)C)[nH]4)ccc32)[nH]1)C(C)C (single isomer, unassigned) [Compound 20] | 0.0866 | 1.97 | – | –
14 | COC(=O)N[C@H](C(=O)N1C[C@H](F)C[C@H]1c1ncc(-c2ccc3c(c2)OC(C2CC2)C2=C3COc3cc(-c4cnc([C@@H]5C[C@@H](F)CN5C(=O)[C@@H](NC(=O)OC)C(C)C)[nH]4)ccc32)[nH]1)C(C)C (single isomer, unassigned) [Compound 21] | 0.0156 | 2.17 | – | –
15 | COC(=O)N[C@H](C(=O)N1C[C@H](F)C[C@H]1c1ncc(-c2ccc3c(c2)OCc2c-3c(=O)oc3cc(-c4cnc([C@@H]5C[C@@H](F)CN5C(=O)[C@@H](NC(=O)OC)C(C)C)[nH]4)ccc23)[nH]1)C(C)C [Compound 5] | – | – | 0.337 | IC50 (HCV replicon genotype 1A; Hepatitis C virus, 72 h): 0.0153 nM; IC50 (HCV replicon 1B; Hepatitis C virus, 72 h): 0.0044 nM; IC50 (HCV replicon 2B; Hepatitis C virus, 72 h): 100 nM; IC50 (HCV replicon 3A; Hepatitis C virus, 72 h): 1 nM
16 | CC(C)(C)OC(=O)N1C[C@H](F)C[C@H]1c1ncc(-c2ccc3c(c2)OCc2c-3c(=O)oc3cc(-c4cnc([C@@H]5C[C@@H](F)CN5C(=O)OC(C)(C)C)[nH]4)ccc23)[nH]1 [Compound 6] | – | – | 3080 | IC50 (HCV replicon genotype 1A; Hepatitis C virus, 72 h): 975 nM
17 | COC(=O)N[C@H](C(=O)N1CCC[C@H]1c1ncc(-c2ccc3c(c2)OC(c2ccccc2)C2=C3COc3cc(-c4cnc([C@@H]5CCCN5C(=O)[C@@H](NC(=O)OC)C(C)C)[nH]4)ccc32)[nH]1)C(C)C (some centres unmarked) [Compound 7] | – | – | 4.29 | IC50 (HCV replicon genotype 1A; Hepatitis C virus, 72 h): 0.0076 nM; IC50 (HCV replicon 1B; Hepatitis C virus, 72 h): 0.002 nM; IC50 (HCV replicon 2B; Hepatitis C virus, 72 h): 1 nM; IC50 (HCV replicon 3A; Hepatitis C virus, 72 h): 0.062 nM
18 | COC(=O)N[C@H](C(=O)N1CCC[C@H]1c1ncc(-c2ccc3c(c2)OCC2=C3COc3cc(-c4cnc([C@@H]5C[C@H]6C[C@H]6N5C(=O)[C@@H](NC(=O)OC)C(C)C)[nH]4)ccc32)[nH]1)C(C)C [Compound 22] | – | – | 2.01 | IC50 (HCV replicon genotype 1A; Hepatitis C virus, 72 h): 0.0023 nM; IC50 (HCV replicon 2B; Hepatitis C virus, 72 h): 16 nM; IC50 (HCV replicon 3A; Hepatitis C virus, 72 h): 2.02 nM
